Values joined by “and” are separate entries in the source; they are usually repeats but may differ in a detail not shown here. Equal entries are not always repeated.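 Values below derive from 48-hour exposures of cells grown in 96-well plates, with endpoints linearly interpolated between the two concentrations bracketing the appropriate inhibition level. GI50: concentration for 50% inhibition of growth. TGI: concentration producing complete growth inhibition.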 Where a SMILES comes first, the peptide text is derived from it. [ ]: non-standard residue; d: D form. The star is where a group is joined. X28 = COC1=CC(=O)N(C(=O)[C@@H](O*)C(C)C)[C@H]1Cc1ccccc1; NMeL = CN[C@@H](CC(C)C)C(=O)O; Hexanoyl = CCCCCC(=O)*
Experiments:
Test in all cases: NCI tumour cell line growth inhibition, 48 h
CCRF-CEM leukemia = test system: CCRF-CEM leukemia
HS 578T breast = test system: HS 578T breast
786-0 renal = test system: 786-0 renal
HCT-116 colon = test system: HCT-116 colon
SW-620 colon = test system: SW-620 colon
RXF 393 renal = test system: RXF 393 renal
SR leukemia = test system: SR leukemia
MOLT-4 leukemia = test system: MOLT-4 leukemia
NCI-H522 lung = test system: NCI-H522 lung
T-47D breast = test system: T-47D breast

| Structure (SMILES) | TGI (CCRF-CEM leukemia) | TGI (HS 578T breast) | TGI (786-0 renal) | TGI (HCT-116 colon) [µM] | TGI (SW-620 colon) | TGI (RXF 393 renal) | TGI (SR leukemia) [µM] | TGI (MOLT-4 leukemia) | TGI (NCI-H522 lung) [µM] | TGI (T-47D breast) | GI50 (CCRF-CEM leukemia) | GI50 (RXF 393 renal) [µM] | GI50 (MOLT-4 leukemia) [µM] | GI50 (HS 578T breast) [µM] | GI50 (NCI-H522 lung) [µM] | GI50 (T-47D breast) | GI50 (SW-620 colon) [µM] | GI50 (HCT-116 colon) | GI50 (SR leukemia) |
| --- | --- | --- | --- | --- | --- | --- | --- | --- | --- | --- | --- | --- | --- | --- | --- | --- | --- | --- | --- |
| O=c1[nH]c2ccc(CC(=S)N3CCN(c4ccccc4)CC3)cc2s1 | > 100 µM | > 100 µM | > 100 µM | > 100 | > 100 µM | 46.4 µM | > 100 | > 100 µM | – | – | – | – | – | – | – | – | – | – | – |
| N=C(/C=C/c1ccc(-c2cn3cc(/C=C/C(=N)N4CCOCC4)ccc3n2)cc1)N1CCOCC1 | – | > 100 µM | > 100 µM | > 100 | > 100 µM | > 100 µM | – | – | > 100 | > 100 µM | – | – | – | – | – | – | – | – | – |
| CC(=O)O[C@H]1C(=O)[C@]2(C)[C@@H](OC(=O)OCC(O)CO)C[C@H]3OC[C@@]3(OC(C)=O)[C@H]2[C@H](OC(=O)c2ccccc2)[C@]2(O)C[C@H](OC(=O)[C@H](O)[C@@H](NC(=O)c3ccccc3)c3ccccc3)C(C)=C1C2(C)C (stereo not given in full) | 31 µM | < 0.01 µM | – | > 38.9 | 22.1 µM | 1.04 µM | 15.8 | 31.3 µM | – | – | – | – | – | – | – | – | – | – | – |
| CCC1OC2C(CC=C(C)C)=C3OC(C)(O)C(C)(CC)C(O)C3=C3OC(=O)C=C1C32 (stereo not given) | > 100 µM | – | > 100 µM | > 100 | > 100 µM | – | – | > 100 µM | – | > 100 µM | – | – | – | – | – | – | – | – | – |
| CCOC(=O)c1c(NC(=S)NCc2ccccc2)sc2c1CCN(C)C2 | 40.3 µM | > 100 µM | – | > 100 | – | – | – | 51 µM | – | > 100 µM | – | – | – | – | – | – | – | – | – |
| Cc1cc2nc3c(C#N)c(-c4ccccc4)/c(=C\Nc4cccc(C(F)(F)F)c4)c(=O)n3c2cc1C | > 100 µM | – | > 100 µM | > 100 | > 100 µM | > 100 µM | – | – | 93.7 | > 100 µM | – | – | – | – | – | – | – | – | – |
| COC(=O)CCCc1ccc2c(c1)CCC2 | > 100 µM | > 100 µM | > 100 µM | > 100 | > 100 µM | – | > 100 | > 100 µM | > 100 | > 100 µM | – | – | – | – | – | – | – | – | – |
| COC(=O)C1Cc2c([nH]c3ccccc23)-c2[nH]c3ccccc3c2CC(NC(C)=O)C(=O)NCC(=O)N1 (stereo not given) | > 100 µM | > 100 µM | > 100 µM | > 100 | > 100 µM | > 100 µM | – | > 100 µM | > 100 | > 100 µM | – | – | – | – | – | – | – | – | – |
| CC(=O)OC1COC(N2C(=O)C(=O)c3cc(Br)c([N+](=O)[O-])cc32)C(OC(C)=O)C1OC(C)=O (stereo not given) | 89.2 µM | – | > 100 µM | > 100 | > 100 µM | 82.3 µM | > 100 | 88.5 µM | > 100 | – | – | – | – | – | – | – | – | – | – |
| CCCCCC(=O)N[C@H](C(=O)N[C@H](C(=O)N(C)[C@@H](CC(C)C)C(=O)N1CCC[C@H]1C(=O)N1CCC[C@H]1C(=O)O[C@H](C(=O)N1C(=O)C=C(OC)[C@@H]1Cc1ccccc1)C(C)C)C(C)C)C(C)C (Hexanoyl-VV[NMeL]PP-X28) | > 100 µM | > 100 µM | > 100 µM | > 100 | > 100 µM | 90.3 µM | – | > 100 µM | > 100 | > 100 µM | – | – | – | – | – | – | – | – | – |
| COc1cc(-c2ccc(-c3ccc(C(=N)N)s3)s2)cc(OC)c1OC | 10.4 µM | – | – | – | – | 3.39 µM | – | 5 µM | – | – | 3.42 µM | 1.66 | 2.4 | – | – | – | – | – | – |
| O=C(/C=C1\N=C(c2ccccc2)N(c2ccc3c(c2)Sc2cc(N4C(=O)/C(=C/C(=O)/C=C/c5ccccc5)N=C4c4ccccc4)ccc2N3)C1=O)/C=C/c1ccccc1 | 63 µM | 96.3 µM | > 100 µM | > 100 | > 100 µM | > 100 µM | – | > 100 µM | 46.8 | > 100 µM | – | – | – | – | – | – | – | – | – |
| C(=N\NC1=NCCCN1)/c1ccc(-c2cn3cc(/C=N/NC4=NCCCN4)ccc3n2)cc1 | > 66.2 µM | – | > 100 µM | > 100 | > 100 µM | > 100 µM | > 29 | 11.8 µM | > 100 | > 100 µM | – | – | – | – | – | – | – | – | – |
| N#CC(C(=O)c1ccccc1F)c1nc2cc(C(F)(F)F)ccc2s1 (stereo not given) | – | – | 60.5 µM | 41.9 | 82.4 µM | > 100 µM | – | > 100 µM | 40.5 | > 100 µM | – | – | – | – | – | – | – | – | – |
| CC1(C)COC(c2cccc(C3=NC(C)(C)CO3)c2)=N1 | – | – | > 100 µM | > 100 | > 100 µM | – | > 100 | > 100 µM | – | > 100 µM | – | – | – | – | – | – | – | – | – |
| COc1cc2c(cc1-c1c(C)noc1C)ncc1nc(C3CCCCC3)n(C3CCC(OC(F)F)CC3)c12 (stereo not given) | – | > 100 µM | – | – | – | 3.99 µM | – | – | – | – | – | 1.33 | – | 3.74 | – | – | – | – | – |
| O=[N+]([O-])c1ccccc1S(=O)(=O)N1CCCc2cc(Cl)ccc21 | > 100 µM | > 100 µM | > 100 µM | > 100 | > 100 µM | 74.1 µM | > 79.8 | > 100 µM | – | 96.5 µM | – | – | – | – | – | – | – | – | – |
| COc1ccc(NS(=O)C2CCCCC2)cc1 (stereo not given) | > 100 µM | > 100 µM | > 100 µM | > 100 | > 100 µM | > 100 µM | > 100 | > 100 µM | > 100 | – | – | – | – | – | – | – | – | – | – |
| CC(C)(C)CC(C)(C)Cc1ccc(OCCOCC[N+](C)(C)Cc2ccccc2)cc1 | 3.72 µM | 4.75 µM | – | – | 3.35 µM | 3 µM | – | – | 4.45 | 3.94 µM | 1.31 µM | 1.42 | – | 2.03 | 1.55 | 1.41 µM | 1.64 | – | – |
| Cn1c2ccccc2n2c(=O)c(-c3ccc(O)cc3)nnc12 | > 100 µM | > 100 µM | > 100 µM | > 100 | > 100 µM | – | > 100 | > 100 µM | > 100 | > 100 µM | – | – | – | – | – | – | – | – | – |
| CC(=O)OCC1OC(n2c(-c3ccccc3)c(N=Nc3ccc(Cl)cc3)c(C)c(C#N)c2=S)C(OC(C)=O)C(OC(C)=O)C1OC(C)=O (stereo not given) | 54.3 µM and > 100 µM | 94 µM and 96.9 µM | > 100 µM and 88.6 µM | > 100 | 34.6 µM and > 100 µM | 35.6 µM and 48.8 µM | > 100 | 21.5 µM and > 100 µM | – | 47.3 µM and > 100 µM | 4.1 µM and 13.7 µM | – | – | – | – | 6.86 µM and 27.2 µM | – | 6.61 µM and 30.2 µM | 11.5 µM and 34.9 µM |
| Cc1nn(-c2ccccc2)c(C)c1/C=N/NC(=O)c1sc(=S)n(-c2ccc(Cl)cc2)c1N | > 100 µM | 7.6 µM | 59.9 µM | > 100 | > 100 µM | 6 µM | > 100 | > 100 µM | – | > 100 µM | – | – | – | – | – | – | – | – | – |
| C=C1C(=O)OC2C(C)C3C=CC(=O)[C@@]3(C)C(OC(=O)/C(C)=C/C)C1[C@@H]2OC(C)=O (stereo not given in full) | > 28.7 µM | – | 0.63 µM | 0.769 | 0.694 µM | 0.61 µM | 3.61 | – | 0.334 | 2.13 µM | – | – | – | – | – | – | – | – | – |

Source: PubChem BioAssay (NCI)
